Data on two compounds can be found in patent US12419869B2, “Methods of treating multiple sclerosis” (Vanda Pharmaceuticals Inc., priority 2021, dated 2025).

Data set [1] relates to adult subjects with relapsing MS. Details: species or system human. Conditions: in vivo; for Discontinuation rate because of elevations in hepatic enzymes / Patients with elevations of ALT to 5-fold the ULN or greater / Subjects with ALT increase >3×ULN (label: 3-fold the ULN or greater) / Subjects with ALT increase >8×ULN: human, 2 year. From the text:
Based on the individual case review, most ALT/AST increases ≥3×ULN occurred as a single transient asymptomatic episode, resolving with continued treatment or after protocol mandated treatment discontinuation. All but one case of bilirubin increase ≥2×ULN occurred in subjects with pre-treatment bilirubin increases. One case of potential Hy's law occurred in a subject with pre-existing transaminase elevation (ALT>5×ULN), and the event fully resolved within 2 weeks after treatment discontinuation.
In Study 1, elevations of ALT to 5-fold the upper limit of normal (ULN) or greater occurred in 4.6% of patients treated with PONVORY compared to 2.5% of patients who received teriflunomide 14 mg. […] The median time to an elevation of 3-fold the ULN was 3 months. The majority (89%) of patients with ALT increases 3-fold or greater the ULN continued treatment with PONVORY with values returning to less than three times the ULN within approximately 2-4 weeks.

Data set [2] shares this test system. The data set can be described thus: Blood pressure, Study 1. Format: in vivo, human. Conditions: for Average increase in diastolic blood pressure / Average increase in systolic blood pressure: Study 1. The method, then:
An increase in blood pressure with PONVORY was first detected after approximately 1 month of treatment initiation and persisted with continued treatment. Hypertensive events were reported as an adverse reaction in 10.1% of PONVORY-treated patients and in 9.0% of patients receiving teriflunomide 14 mg. One patient treated with PONVORY experienced a hypertensive crisis but had evidence of longstanding hypertensive heart disease. Blood pressure should be monitored during treatment with PONVORY and managed appropriately.

For data set [3] the test system is unchanged. The data set can be described thus: EDSS, time to first 12-week / 24-week confirmed disability accumulation (CDA). Format: in vivo, human. Conditions: for Proportion of Patients with 3-month Confirmed Disability Progression: Kaplan-Meier estimates at Week 108; for Hazard ratio, time to first 12-week CDA (3-month CDP), ponesimod vs teriflunomide: stratified Cox regression. The text has this:
A 12-week CDA is an increase of at least 1.5 in EDSS for subjects with a baseline EDSS score of 0.0 or an increase of at least 1.0 in EDSS for subjects with a baseline EDSS score of 1.0 to 5.0, or an increase of at least 0.5 in EDSS for subjects with a baseline EDSS score≥5.5 which is to be confirmed after 12 weeks.
All EDSS measurements (with or without relapse, at a scheduled or unscheduled visit) were used to determine the onset of disability accumulation. However, EDSS scores used for confirmation of disability accumulation were obtained at a scheduled visit (i.e., unscheduled visits cannot be used as confirmatory visits) outside any ongoing relapse. In this context, relapse duration is defined as period between start and end dates if available and limited to 90 days from onset if end date is not available or duration is longer than 90 days.
In order to confirm that the EDSS increase is persistent, all EDSS measurements between the onset and the 12-week EDSS confirmation (minus 7-day visit time-window) need to show an increase in EDSS, meeting the criteria for accumulation of disability as defined above.
A 24-week CDA is an increase of at least 1.5 in EDSS for subjects with a baseline EDSS score of 0.0 or an increase of at least 1.0 in EDSS for subjects with a baseline EDSS score of 1.0 to 5.0, or an increase of at least 0.5 in EDSS for subjects with a baseline EDSS score≥5.5 which is to be confirmed after 24 weeks.
The primary endpoint was the annualized relapse rate (ARR) over the study period. Additional outcome measures included: 1) the number of new Gd-enhancing T1 lesions from baseline to Week 108, 2) the number of new or enlarging T2 lesions (without double-counting of lesions) from baseline to Week 108, and 3) the time to 3-month and 6-month confirmed disability progression. A confirmed disability progression was defined as an increase of at least 1.5 in EDSS for patients with a baseline EDSS score of 0, an increase of at least 1.0 in EDSS for patients with a baseline EDSS score of 1.0 to 5.0, or an increase of at least 0.5 in EDSS for patients with a baseline EDSS score at least 5.5, which was confirmed after 3 months and 6 months.

Data set [4] has the same test system. Kind of data set: Confirmed relapses / annualized relapse rate up to EOS, phase III study ponesimod 20 mg vs teriflunomide 14 mg. Conditions: for Mean estimate (ARR), confirmed relapses up to EOS: negative binomial regression, teriflunomide 14 mg, ponesimod 20 mg; for Percentage of patients without relapse: study period of approximately 108 weeks. It is filed as in vivo, human. The method, then:
Primary efficacy variable/primary timepoint: The primary endpoint was annualized relapse rate (ARR) up to the end of study (EOS) defined as the number of confirmed relapses per subject-year. All available data up to EOS, regardless of treatment discontinuation was included (ITT approach).
The primary statistical analysis of the ARR endpoint was performed on the FAS using a negative binomial model for confirmed relapses, with the stratification variables prior use of disease-modifying therapies (DMTs) and EDSS category as well as the number of relapses in the year prior to study entry, included in the model and time in the study as an offset variable. Sensitivity analyses was performed on the PPS and also based on different subgroups derived from baseline variables.
A relapse is defined as new, worsening or recurrent neurological symptoms that occur at least 30 days after the onset of a preceding relapse, and that last at least 24 hours, in the absence of fever or infection.
A relapse was confirmed by the treating neurologist only when the subjects' symptoms were accompanied by an increase in EDSS/FS (functional system) scores, which were consistent with the subject's symptoms, from a previous clinically stable EDSS/FS assessment (i.e., performed at least 30 days after the onset of any previous relapse), obtained by the efficacy assessor and consistent with the following: • An increase of at least half a step (0.5 points; unless EDSS=0, then an increase of at least 1.0 points is required) or • An increase of at least 1.0 point in at least two FS scores, or • An increase of at least 2.0 points in at least one FS score (excluding bladder/bowel and cerebral).
The primary statistical analysis was performed up to EOS on the FAS using a negative binomial regression model for confirmed relapses, with treatment as a factor and the binary stratification variables (EDSS≤3.5 versus EDSS>3.5; DMTs within last 2 years prior to randomization [Yes/No]) and the number of relapses in the year prior to study entry (categories≤1 (or missing) and […]) included in the model. The model also included an offset variable defined as the log of time on study (in years) from randomization up to EOS.

For `CCC/N=C1\S/C(=C\c2ccc(OC[C@H](O)CO)c(Cl)c2)C(=O)N1c1ccccc1C` [Ponesimod, (R)-5-[3-chloro-4-(2,3-dihydroxy-propoxy)-benz[Z]ylidene]-2-([Z]-propylimino)-3-o-tolyl-thiazolidin-4-one], in data set [1], the “Discontinuation rate because of elevations in hepatic enzymes” value is listed as 2.3%, the “Patients with elevations of ALT to 5-fold the ULN or greater” value was 4.6%, the “Subjects with ALT increase >3×ULN (label: 3-fold the ULN or greater)” value stood at 17.3% and the “Subjects with ALT increase >8×ULN” value is reported as 0.7%. Moreover, in data set [1], the “Median time to an ALT elevation of 3-fold the ULN” value is on record as 3 months, the “Patients with ALT increases 3-fold or greater the ULN who continued treatment” value is 89% and the “Time for ALT values returning to less than three times the ULN on continued treatment” value was 2-4 weeks. For the same compound, in data set [2], the “Average increase in diastolic blood pressure” value was determined as 2.8 mm Hg and the “Average increase in systolic blood pressure” value was 2.9 mm Hg. The “Time after treatment initiation at which blood pressure increase was first detected” value in data set [2] (in vivo) is “approximately 1 month”. Moreover, in data set [3], the “Proportion of Patients with 3-month Confirmed Disability Progression” value is on record as 10.8% and the “Hazard ratio, time to first 12-week CDA (3-month CDP), ponesimod vs teriflunomide” value (“Hazard ratio, time to first 12-week CDA” below) is reported as 0.83. Further, the “Hazard ratio, time to first 24-week CDA, ponesimod vs teriflunomide” value in data set [3] (exploratory) is 0.84. Further, in data set [3] (not statistically significant), the “Reduction of risk of 12-week CDA compared to teriflunomide 14 mg” value was 17% and the “Reduction of risk of 24-week CDA compared to teriflunomide 14 mg” value is 16%. The “Hazard ratio, time to first 12-week CDA” value in data set [3] (listed as PONVORY) was 0.83 (p = 0.29). Further, in data set [3] (listed as ponesimod), the “Hazard ratio, time to first 12-week CDA” value came to 0.83. In addition, in data set [3] (up to EOS), the “Subjects with 12-week CDA” value was found to be 10.1% and the “Subjects with 24-week CDA” value is listed as 8.1%. In data set [4] (Full Analysis Set, up to EOS), the “Raw ARR” value is 0.216; the “Total number of relapses” value is 242; the “Treatment effect (rate ratio) on ARR, ponesimod vs teriflunomide” value came out at 0.695. The “Mean estimate (ARR), confirmed relapses up to EOS” value in data set [4] (Full Analysis Set) is 0.202. In data set [4], the “Percentage of patients without relapse” value is listed as 70.7%. Also, the “Relative reduction of ARR compared to teriflunomide 14 mg” value in data set [4] (up to EOS) is on record as 30.5%.
`C/C(O)=C(\C#N)C(=O)Nc1ccc(C(F)(F)F)cc1` [Teriflunomide, reference compound]: in data set [1], the “Discontinuation rate because of elevations in hepatic enzymes” value is reported as 1.9%, the “Patients with elevations of ALT to 5-fold the ULN or greater” value was found to be 2.5%, the “Subjects with ALT increase >3×ULN (label: 3-fold the ULN or greater)” value was determined as 8.3% and the “Subjects with ALT increase >8×ULN” value is 2.1%. Besides, in data set [2], the “Average increase in diastolic blood pressure” value is 3.1 mm Hg and the “Average increase in systolic blood pressure” value was 2.8 mm Hg. The “Proportion of Patients with 3-month Confirmed Disability Progression” value in data set [3] is 13.2%. In addition, in data set [3] (up to EOS), the “Subjects with 24-week CDA” value came out at 9.9%. The “Mean estimate (ARR), confirmed relapses up to EOS” value in data set [4] (Full Analysis Set) was 0.290. Further, the “Percentage of patients without relapse” value in data set [4] is given as 60.6%.
